Results taken from ChEMBL document CHEMBL1201861, “Genomics of Drug Sensitity in Cancer screening data, Wellcome Trust Sanger Institute”.
pIC50: −log10 of the molar value.

What was measured:
Test in all cases: cells
Type in all cases: functional, cell-based
Conditions in all cases: Homo sapiens
TE-8 = system: TE-8;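 also: growth inhibition of TE-8 cells, measured with a cell viability readout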
Description: SANGER: Inhibition of human TE-8 cell growth in a cell viability assay.

SF-268 = system: SF-268;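 also: growth inhibition of SF-268 cells determined with a cell viability assay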
Description: SANGER: Inhibition of human SF268 cell growth in a cell viability assay.

K562 = system: K562
Description: SANGER: Inhibition of human K-562 cell growth in a cell viability assay.

TE-10 = system: TE-10;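 also: growth inhibition of TE-10 cells, measured by a cell viability assay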
Description: SANGER: Inhibition of human TE-10 cell growth in a cell viability assay.

OCUB-M = system: OCUB-M;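 also: growth inhibition of the cancer cell line, read out through a cell viability assay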
Description: SANGER: Inhibition of human OCUB-M cell growth in a cell viability assay.

NCI-H1838 = system: NCI-H1838;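 also: growth inhibition of NCI-H1838 cells, determined with a cell viability readout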
Description: SANGER: Inhibition of human NCI-H1838 cell growth in a cell viability assay.

KARPAS-299 = system: KARPAS-299
Description: SANGER: Inhibition of human KARPAS-299 cell growth in a cell viability assay.

8-MG-BA = system: 8-MG-BA;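 also: growth inhibition of 8-MG-BA cells, read out with a cell viability assay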
Description: SANGER: Inhibition of human 8-MG-BA cell growth in a cell viability assay.

CGTH-W-1 = system: CGTH-W-1;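 also: growth inhibition of human CGTH-W-1 cells measured by cell viability assay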
Description: SANGER: Inhibition of human CGTH-W-1 cell growth in a cell viability assay.

GR-ST = system: GR-ST
Description: SANGER: Inhibition of human GR-ST cell growth in a cell viability assay.

HT = system: HT
Description: SANGER: Inhibition of human HT cell growth in a cell viability assay.

ES1 = system: ES1;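 also: growth inhibition of ES1 cells, read out with a cell viability assay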
Description: SANGER: Inhibition of human ES1 cell growth in a cell viability assay.

MLMA = system: MLMA;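 also: growth inhibition of MLMA cells (human), determined through a cell viability readout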
Description: SANGER: Inhibition of human MLMA cell growth in a cell viability assay.

NCI-H446 = system: NCI-H446;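 also: growth inhibition of NCI-H446 cells determined by a cell viability assay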
Description: SANGER: Inhibition of human NCI-H446 cell growth in a cell viability assay.

BE-13 = system: BE-13;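 also: growth inhibition of human BE-13 cells, measured with a cell viability assay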
Description: SANGER: Inhibition of human BE-13 cell growth in a cell viability assay.

LC-2-ad = system: LC-2-ad;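 also: growth inhibition of human LC-2-ad cells, read out with a cell viability assay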
Description: SANGER: Inhibition of human LC-2-ad cell growth in a cell viability assay.

RPMI-8226 = system: RPMI-8226
Description: SANGER: Inhibition of human RPMI-8226 cell growth in a cell viability assay.

ES7 = system: ES7;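 also: growth inhibition of cultured human ES7 cells, read out as cell viability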
Description: SANGER: Inhibition of human ES7 cell growth in a cell viability assay.

NCI-H1092 = system: NCI-H1092;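 also: cell growth inhibition measured with a cell viability assay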
Description: SANGER: Inhibition of human NCI-H1092 cell growth in a cell viability assay.

OVCAR-4 = system: OVCAR-4;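 also: growth inhibition of human OVCAR-4 cells, measured with a cell viability assay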
Description: SANGER: Inhibition of human OVCAR-4 cell growth in a cell viability assay.

PSN1 = system: PSN1;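 also: suppression of growth of human PSN1 cells, read out by a cell viability assay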
Description: SANGER: Inhibition of human PSN1 cell growth in a cell viability assay.

NCI-H1650 = system: NCI-H1650;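 also: growth inhibition of human NCI-H1650 cells measured by a cell viability assay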
Description: SANGER: Inhibition of human NCI-H1650 cell growth in a cell viability assay.

NMC-G1 = system: NMC-G1;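 also: growth inhibition of the NMC-G1 cell line, measured with a cell viability read-out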
Description: SANGER: Inhibition of human NMC-G1 cell growth in a cell viability assay.

NCI-H82 = system: NCI-H82;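 also: growth inhibition of NCI-H82 cells, measured with a cell viability readout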
Description: SANGER: Inhibition of human NCI-H82 cell growth in a cell viability assay.

697 = system: 697
Description: SANGER: Inhibition of human 697 cell growth in a cell viability assay.

MMAC-SF = system: MMAC-SF;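 also: growth inhibition of human MMAC-SF cells, read out with a cell viability assay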
Description: SANGER: Inhibition of human MMAC-SF cell growth in a cell viability assay.

LB373-MEL-D = system: LB373-MEL-D;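 also: growth inhibition of the cell line, read out in a cell viability assay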
Description: SANGER: Inhibition of human LB373-MEL-D cell growth in a cell viability assay.

NB6 = system: NB6;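 also: growth inhibition of NB6 cells, read out by a cell viability assay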
Description: SANGER: Inhibition of human NB6 cell growth in a cell viability assay.

SNU-5 = system: SNU-5;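 also: cell viability readout used to measure growth inhibition in human NCI-SNU-5 cells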
Description: SANGER: Inhibition of human NCI-SNU-5 cell growth in a cell viability assay.

SK-PN-DW = system: SK-PN-DW;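 also: growth inhibition measured with a viability assay on these cells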
Description: SANGER: Inhibition of human SK-PN-DW cell growth in a cell viability assay.

KMOE-2 = system: KMOE-2;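 also: growth inhibition of human KMOE-2 cells, read out with a cell viability assay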
Description: SANGER: Inhibition of human KMOE-2 cell growth in a cell viability assay.

BB30-HNC = system: BB30-HNC;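 also: growth inhibition of the cultured cell line, read out by a cell viability assay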
Description: SANGER: Inhibition of human BB30-HNC cell growth in a cell viability assay.

LU-139 = system: LU-139
Description: SANGER: Inhibition of human LU-139 cell growth in a cell viability assay.

RCC10RGB = system: RCC10RGB;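 also: growth inhibition of human RCC10RGB cells, read out by a cell viability assay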
Description: SANGER: Inhibition of human RCC10RGB cell growth in a cell viability assay.

DB = system: DB
Description: SANGER: Inhibition of human DB cell growth in a cell viability assay.

Ramos-2G6-4C10 = system: Ramos-2G6-4C10;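 also: growth inhibition of the cell line, measured by a cell viability read-out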
Description: SANGER: Inhibition of human Ramos-2G6-4C10 cell growth in a cell viability assay.

SNU-C2B = system: SNU-C2B;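 also: cell viability readout used to measure compound-driven suppression of SNU-C2B cell proliferation, IC50 marking half-maximal growth inhibition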
Description: SANGER: Inhibition of human SNU-C2B cell growth in a cell viability assay.

OCI-AML2 = system: OCI-AML2;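 also: growth inhibition of OCI-AML2 cells, read out with a cell viability assay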
Description: SANGER: Inhibition of human OCI-AML2 cell growth in a cell viability assay.

TE-9 = system: TE-9;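 also: cell growth inhibition, measured with a cell viability readout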
Description: SANGER: Inhibition of human TE-9 cell growth in a cell viability assay.

NCI-H226 = system: NCI-H226;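 also: cell viability read-out used to gauge growth inhibition of the cells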
Description: SANGER: Inhibition of human NCI-H226 cell growth in a cell viability assay.

MFM-223 = system: MFM-223
Description: SANGER: Inhibition of human MFM-223 cell growth in a cell viability assay.

BT-474 = system: BT-474
Description: SANGER: Inhibition of human BT-474 cell growth in a cell viability assay.

LS-513 = system: LS-513
Description: SANGER: Inhibition of human LS-513 cell growth in a cell viability assay.

NCI-H1304 = system: NCI-H1304;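 also: growth inhibition of the cancer cell line, measured in a cell viability assay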
Description: SANGER: Inhibition of human NCI-H1304 cell growth in a cell viability assay.

UACC-257 = system: UACC-257
Description: SANGER: Inhibition of human UACC-257 cell growth in a cell viability assay.

NB5 = system: NB5;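 also: growth inhibition of NB5 cells, read out as cell viability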
Description: SANGER: Inhibition of human NB5 cell growth in a cell viability assay.

RKO = system: RKO;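 also: growth inhibition of human RKO cells, read out with a cell viability assay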
Description: SANGER: Inhibition of human RKO cell growth in a cell viability assay.

MZ7-mel = system: MZ7-mel;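 also: growth inhibition of human MZ7-mel cells, measured by a cell viability assay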
Description: SANGER: Inhibition of human MZ7-mel cell growth in a cell viability assay.

TE-6 = system: TE-6;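 also: growth inhibition of TE-6 cells, read out with a cell viability assay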
Description: SANGER: Inhibition of human TE-6 cell growth in a cell viability assay.

LB2518-MEL = system: LB2518-MEL;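 also: growth inhibition of human LB2518-MEL cells, measured with a cell viability assay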
Description: SANGER: Inhibition of human LB2518-MEL cell growth in a cell viability assay.

LXF-289 cell line = system: LXF-289 cell line
Description: SANGER: Inhibition of human LXF-289 cell growth in a cell viability assay.

MC116 = system: MC116;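 also: growth inhibition of MC116 cells, read out with a cell viability assay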
Description: SANGER: Inhibition of human MC116 cell growth in a cell viability assay.

Mo = system: Mo
Description: SANGER: Inhibition of human Mo-T cell growth in a cell viability assay.

LOX IMVI = system: LOX IMVI
Description: SANGER: Inhibition of human LOXIMVI cell growth in a cell viability assay.

IA-LM = system: IA-LM;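 also: cell viability assay measuring growth inhibition of human IA-LM cells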
Description: SANGER: Inhibition of human IA-LM cell growth in a cell viability assay.

NH-12 = system: NH-12;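 also: growth inhibition of NH-12 cells, read out with a cell viability assay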
Description: SANGER: Inhibition of human NH-12 cell growth in a cell viability assay.

LB771-HNC = system: LB771-HNC;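 also: growth inhibition of LB771-HNC human cells, read out with a cell viability assay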
Description: SANGER: Inhibition of human LB771-HNC cell growth in a cell viability assay.

HT-144 = system: HT-144
Description: SANGER: Inhibition of human HT-144 cell growth in a cell viability assay.

A101D = system: A101D;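 also: growth inhibition of the cell line, measured with a viability assay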
Description: SANGER: Inhibition of human A101D cell growth in a cell viability assay.

LAN-6 = system: LAN-6;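 also: growth inhibition of LAN-6 cells, determined with a cell viability assay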
Description: SANGER: Inhibition of human LAN-6 cell growth in a cell viability assay.

CCRF-CEM = system: CCRF-CEM;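 also: inhibition of CCRF-CEM cell growth, measured by a cell viability assay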
Description: SANGER: Inhibition of human CCRF-CEM cell growth in a cell viability assay.

MZ1-PC = system: MZ1-PC;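 also: cell viability assay measuring growth inhibition of human MZ1-PC cells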
Description: SANGER: Inhibition of human MZ1-PC cell growth in a cell viability assay.

SK-UT-1 = system: SK-UT-1;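 also: growth inhibition of SK-UT-1 cells, measured by a cell viability assay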
Description: SANGER: Inhibition of human SK-UT-1 cell growth in a cell viability assay.

DSH1 = system: DSH1;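 also: growth inhibition of human DSH1 cells, measured with a cell viability readout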
Description: SANGER: Inhibition of human DSH1 cell growth in a cell viability assay.

HC-1 = system: HC-1;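 also: growth inhibition of HC-1 cells measured by a cell viability assay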
Description: SANGER: Inhibition of human HC-1 cell growth in a cell viability assay.

EW-1 = system: EW-1
Description: SANGER: Inhibition of human EW-1 cell growth in a cell viability assay.

## CC(O)(CS(=O)(=O)c1ccc(F)cc1)C(=O)Nc1ccc(C#N)c(C(F)(F)F)c1 (configuration not stated) [BICALUTAMIDE]
TE-8
  pIC50: < 5.99
SF-268
  pIC50: < 5.99
K562
  pIC50: < 5.99
TE-10
  pIC50: < 5.99
OCUB-M
  pIC50: < 5.99
NCI-H1838
  pIC50: < 5.99
KARPAS-299
  pIC50: < 5.99
8-MG-BA
  pIC50: < 5.99
CGTH-W-1
  pIC50: < 5.99
GR-ST
  pIC50: < 5.99
HT
  pIC50: < 5.99
ES1
  pIC50: < 5.99
MLMA
  pIC50: < 5.99
NCI-H446
  pIC50: < 5.99
BE-13
  pIC50: < 5.99
LC-2-ad
  pIC50: < 5.99
RPMI-8226
  pIC50: < 5.99
ES7
  pIC50: < 5.99
NCI-H1092
  pIC50: < 5.99
OVCAR-4
  pIC50: < 5.99
PSN1
  pIC50: < 5.99
NCI-H1650
  pIC50: < 5.99
NMC-G1
  pIC50: < 5.99
NCI-H82
  pIC50: < 5.99
697
  pIC50: < 5.99
MMAC-SF
  pIC50: < 5.99
LB373-MEL-D
  pIC50: < 5.99
NB6
  pIC50: < 5.99
SNU-5
  pIC50: < 5.99
SK-PN-DW
  pIC50: < 5.99
KMOE-2
  pIC50: < 5.99
BB30-HNC
  pIC50: < 5.99
LU-139
  pIC50: < 5.99
RCC10RGB
  pIC50: < 5.99
DB
  pIC50: < 5.99
Ramos-2G6-4C10
  pIC50: < 5.99
SNU-C2B
  pIC50: < 5.99
OCI-AML2
  pIC50: < 5.99
TE-9
  pIC50: < 5.99
NCI-H226
  pIC50: < 5.99
MFM-223
  pIC50: < 5.99
BT-474
  pIC50: < 5.99
LS-513
  pIC50: < 5.99
NCI-H1304
  pIC50: < 5.99
UACC-257
  pIC50: < 5.99
NB5
  pIC50: < 5.99
RKO
  pIC50: < 5.99
MZ7-mel
  pIC50: < 5.99
TE-6
  pIC50: < 5.99
LB2518-MEL
  pIC50: < 5.99
LXF-289 cell line
  pIC50: < 5.99
MC116
  pIC50: < 5.99
Mo
  pIC50: < 5.99
LOX IMVI
  pIC50: < 5.99
IA-LM
  pIC50: < 5.99
NH-12
  pIC50: < 5.99
LB771-HNC
  pIC50: < 5.99
HT-144
  pIC50: < 5.99
A101D
  pIC50: < 5.99
LAN-6
  pIC50: < 5.99
CCRF-CEM
  pIC50: < 5.99
MZ1-PC
  pIC50: < 5.99
SK-UT-1
  pIC50: < 5.99
DSH1
  pIC50: < 5.99
HC-1
  pIC50: < 5.99
EW-1
  pIC50: < 5.99

## COc1cc(Nc2c(C#N)cnc3cc(OCCCN4CCN(C)CC4)c(OC)cc23)c(Cl)cc1Cl [BOSUTINIB]
TE-8
  pIC50: < 5.70
SF-268
  pIC50: < 5.70
K562
  pIC50: < 5.70
TE-10
  pIC50: < 5.70
OCUB-M
  pIC50: < 5.70
NCI-H1838
  pIC50: < 5.70
KARPAS-299
  pIC50: < 5.70
8-MG-BA
  pIC50: < 5.70
CGTH-W-1
  pIC50: < 5.70
GR-ST
  pIC50: < 5.70
HT
  pIC50: < 5.70
ES1
  pIC50: 6.17
MLMA
  pIC50: 6.04
NCI-H446
  pIC50: < 5.70
BE-13
  pIC50: 6.31
LC-2-ad
  pIC50: < 5.70
RPMI-8226
  pIC50: < 5.70
ES7
  pIC50: < 5.70
NCI-H1092
  pIC50: < 5.70
OVCAR-4
  pIC50: < 5.70
PSN1
  pIC50: < 5.70
NCI-H1650
  pIC50: < 5.70
NMC-G1
  pIC50: < 5.70
NCI-H82
  pIC50: < 5.70
697
  pIC50: 6.34
MMAC-SF
  pIC50: < 5.70
LB373-MEL-D
  pIC50: < 5.70
NB6
  pIC50: < 5.70
SNU-5
  pIC50: < 5.70
SK-PN-DW
  pIC50: < 5.70
KMOE-2
  pIC50: < 5.70
BB30-HNC
  pIC50: 5.89
LU-139
  pIC50: < 5.70
RCC10RGB
  pIC50: < 5.70
DB
  pIC50: < 5.70
Ramos-2G6-4C10
  pIC50: < 5.70
SNU-C2B
  pIC50: < 5.70
OCI-AML2
  pIC50: < 5.70
TE-9
  pIC50: < 5.70
NCI-H226
  pIC50: < 5.70
MFM-223
  pIC50: < 5.70
BT-474
  pIC50: < 5.70
LS-513
  pIC50: < 5.70
NCI-H1304
  pIC50: < 5.70
UACC-257
  pIC50: < 5.70
NB5
  pIC50: < 5.70
RKO
  pIC50: < 5.70
MZ7-mel
  pIC50: < 5.70
TE-6
  pIC50: < 5.70
LB2518-MEL
  pIC50: < 5.70
LXF-289 cell line
  pIC50: < 5.70
MC116
  pIC50: < 5.70
Mo
  pIC50: < 5.70
LOX IMVI
  pIC50: 5.76
IA-LM
  pIC50: < 5.70
NH-12
  pIC50: < 5.70
LB771-HNC
  pIC50: 6.08
HT-144
  pIC50: < 5.70
A101D
  pIC50: 5.71
LAN-6
  pIC50: < 5.70
CCRF-CEM
  pIC50: < 5.70
MZ1-PC
  pIC50: < 5.70
SK-UT-1
  pIC50: < 5.70
DSH1
  pIC50: < 5.70
HC-1
  pIC50: < 5.70
EW-1
  pIC50: < 5.70
